In brackets after ≈: the same amount, converted by molar mass. Where two headings read alike, the source gives them in different places.
Tests used:
Assay type in all cases: cell-based
[1] = tested on: C. albicans GDH2346; assay: Candida IC50, vegetative cells, by OD600 and fluorescence; conditions: Candida albicans, GDH2346
Description: Candida IC50s were determined by OD600 and fluorescence from vegetative cells and by MTS viability assay in the hyphal state. MICs were determined using a broth microdilution assay under standard CLSI conditions Bacteria strains: E. coli 25922 (EC), S. aureus 27660 (SA), E. faecalis 29212 (EF), P. aeruginosa 10145 (PA), and K. pneumoniae 13883 (KP). Cytotoxicity (EC50) was determined against mouse 3T3 fibroblasts, human transformed liver HepG2 cells, and human oral keratinocyte cell line, OKF6/TERT using an MTS viability assay. Candida IC50s<10 μg/mL, MICs<5 μg/mL and cytotoxicity EC50s>100 μM are indicated in green. MICs>5 μg/mL and cytotoxicity EC50s<100 μM are indicated in red. Candida IC50s (CA) were determined by OD600 and fluorescence from vegetative cells. MICs were determined using a broth microdilution assay under standard CLSI conditions Bacteria strains: E. coli 25922 (EC), S. aureus 27660 (SA), E. faecalis 29212 (EF), P. aeruginosa 10145 (PA), and K. pneumoniae 13883 (KP). Cytotoxicity (EC50) was determined against mouse 3T3 fibroblasts and human transformed liver HepG2 cells using an MTS viability assay. For determination of anti-Candida IC50s, the method was modified by using RPMI/MOPS buffer pH 6.3 and by addition of FDGlu, a substrate for the yeast enzyme exoglucanase which is secreted during cell growth. This provides a fluorescent readout for cell growth which was used in addition to the traditional optical density measure of growth. OD600 and fluorescence were determined at 24 and 48 hours and the average of all 4 reads was used for the final IC50 determination.

[2] = tested on: human transformed liver HepG2 cells; assay: Cytotoxicity, MTS viability assay; conditions: Homo sapiens, HepG2; cytotoxicity
Description: (§1) Candida IC50s were determined by OD600 and fluorescence from vegetative cells and by MTS viability assay in the hyphal state. MICs were determined using a broth microdilution assay under standard CLSI conditions Bacteria strains: E. coli 25922 (EC), S. aureus 27660 (SA), E. faecalis 29212 (EF), P. aeruginosa 10145 (PA), and K. pneumoniae 13883 (KP). Cytotoxicity (EC50) was determined against mouse 3T3 fibroblasts, human transformed liver HepG2 cells, and human oral keratinocyte cell line, OKF6/TERT using an MTS viability assay. Candida IC50s<10 μg/mL, MICs<5 μg/mL and cytotoxicity EC50s>100 μM are indicated in green. MICs>5 μg/mL and cytotoxicity EC50s<100 μM are indicated in red.
(§2) Candida IC50s (CA) were determined by OD600 and fluorescence from vegetative cells. MICs were determined using a broth microdilution assay under standard CLSI conditions Bacteria strains: E. coli 25922 (EC), S. aureus 27660 (SA), E. faecalis 29212 (EF), P. aeruginosa 10145 (PA), and K. pneumoniae 13883 (KP). Cytotoxicity (EC50) was determined against mouse 3T3 fibroblasts and human transformed liver HepG2 cells using an MTS viability assay.
(§3) CLSI conditions Bacteria strains: clinical isolates; yeast strains: C. dubliniensis (NCPF3949), C. glabrata (ATCC 90030), C. krusei (ATCC 6258), C. parapsilosis (ATCC 22019), and C. tropicalis (ATCC 750). Cytotoxicity (EC50) was determined against mouse 3T3 fibroblasts, human transformed liver HepG2 cells, and human oral keratinocyte cell line, OKF6/TERT using an MTS viability assay.

[3] = tested on: mouse 3T3 fibroblasts; assay: Cytotoxicity, MTS viability assay; conditions: Mus musculus, NIH3T3; cytotoxicity
Description: as §1, §2, §3

[4] = tested on: C. albicans GDH2346; assay: Membrane permeabilization, PI staining and flow cytometry; conditions: 32 μg/mL, 5-minute treatment
Description: (A) C. albicans GDH2346 was treated with Compound 100 at the concentrations indicated ([…]) for 30 minutes, followed by staining with PI and quantification by flow cytometry. Ethanol treatment was used to establish 100% uptake. (B) Cells were treated with Compound 100 at 32 μg/mL for the times indicated. To determine whether the compounds act at the membrane, like many host defense proteins, or intracellularly like histatins, the ability of Compound 100 to cause membrane permeability was assessed. Dose-dependent membrane permeabilization of Candida, as shown by cellular accumulation of PI, was evident within 30 minutes at 8 to 32 μg/mL Compound 100 concentrations (see FIG. 3A). Influx was rapid, where >75% of cells were permeabilized after a 5-minute treatment with Compound 100 at 32 μg/mL (see FIG. 3B).

[5] = tested on: C. albicans GDH2346; assay: Time kill; conditions: FIGS. 6A and 6B
Description: Time kills were performed in the same manner as IC50s. At each time point yeast were removed, diluted as necessary and plated on YPD agar to determine viable CFUs.

[6] = tested on: A. flavus (NRRL3357); assay: Anti-Aspergillus screen, CLSI M38-A, visual inhibition of growth; conditions: screening concentration 10 μM, 24-48 hours
Description: (§4) The in vitro efficacy of a library of compounds was assessed for antifungal activity against A. niger (AN1), A. fumigatus ([…]) and A. flavus (NRRL3357) and compared to that of Itraconazole. For a subset of compounds selected based upon efficacy in the screening study a full MIC profile was conducted. Efficacy of test articles was determined in RPMI 1640 broth with MOPS buffered to pH7.2 in accordance with CLSI guidelines M38-A for Antifungal Susceptibility Testing of Filamentous Fungi. The method was modified by using flat well plates to allow microscopic identification of growth. The final screening concentration of each test article was 10 μM. Assay plates were incubated aerobically at 37° C. for 24-48 hours. Following incubation, plates were assessed visually (by eye and microscopically) for inhibition of growth. Inhibition was recorded at 50%, 80% and 100% inhibition compared to the positive control.

[7] = tested on: A. fumigatus (A1163); assay: as above; conditions: screening concentration 10 μM, 24-48 hours
Description: as §4

[8] = tested on: A. niger (AN1); assay: as above; conditions: screening concentration 10 μM, 24-48 hours
Description: as §4

[9] = vegetative cells, read-out: IC50 Candida, Vegetative
[10] = vegetative cultures, read-out: Anti-C. albicans GDH2346 Vegetative (IC50)

Q: What does the source list for `NCCSc1cc(SCCN)c(C(F)(F)F)cc1NC(=O)c1cc(C(=O)Nc2cc(C(F)(F)F)c(SCCN)cc2SCCN)ncn1` [Compound 100]?
A: IC50 [1, 9]: 4.93 µg/mL (≈ 6.53 µM); IC50 [1, 10]: 4.93 µg/mL (≈ 6.53 µM); IC50 [2]: > 1000 µM; IC50 [3]: 439 µM; cells permeabilized (PI uptake) [4]: > 75%; killing kinetics [5]: cidal activity with rapid killing kinetics

Q: Which results are given for `NCCCOc1cc(OCCCN)cc(-c2ccc3c(c2)c2cc(-c4cc(OCCCN)cc(OCCCN)c4)ccc2n3CCCN)c1` [Compound 135]?
A: IC50 [1, 9]: 1.44 µg/mL (≈ 2.15 µM); IC50 [1, 10]: 1.44 µg/mL (≈ 2.15 µM); IC50 [2]: 885 µM; IC50 [3]: 436 µM; killing kinetics [5]: cidal activity with rapid killing kinetics

Q: Which IC50 ([1]; Table 6, read-out: IC50 C. albicans) does the source give for `N=C(N)N1CCN(c2ccc(-c3cc(-c4ccc(N5CCN(C(=N)N)CC5)cc4)ncn3)cc2)CC1` [Compound 136] here?
A: 1.4 µg/mL (≈ 2.89 µM)

Q: What about the IC50 [1, 9] of the same compound?
A: 4.24 µg/mL (≈ 8.75 µM)

Q: What about the IC50 [1, 10] of the same compound?
A: 4.24 µg/mL (≈ 8.75 µM)

Q: And the IC50 [2]?
A: 453 µM

Q: And the IC50 [3]?
A: 311 µM

Q: What about the inhibition at 10 µM [6] of the same compound?
A: 100%

Q: And the inhibition at 10 µM [7]?
A: 100%

Q: What about the inhibition at 10 µM [8] of the same compound?
A: 100%

Q: Which IC50 [1, 9] does the source give for `NCCCOc1cc(-c2cn(-c3cc(OCCCN)cc(OCCCN)c3)nn2)cc(-c2cn(-c3cc(OCCCN)cc(OCCCN)c3)nn2)c1` [Compound 137] here?
A: 1.89 µg/mL (≈ 2.59 µM)

Q: What about the IC50 [2] of the same compound?
A: 182 µM

Q: What about the IC50 [3] of the same compound?
A: 83 µM

From patent US8895561B2, “Compounds and methods for treating candidiasis and aspergillus infections” (Cellceutix Corporation, priority 2012, dated 2014)
